pIC50: −log10 of the molar value.

The target of this test is Full-length inactive AKT1 (Homo sapiens, UniProt P31749). Nature of the test: Inactive Akt Alpha Screen Assay. Format: biochemical. The settings on record: values not marked with "*"; read-out: Akt1 IC50, (AlphaScreen). A digest of the protocol: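 AlphaScreen read-out (excitation 640 nm, emission 570 nm) after 90 min incubation at room temperature in the dark. Signal comes from crosstide phosphorylation by AKT1, which was activated by added PDK1, MAPKAPK2, ATP and lipid vesicles, captured via phospho-AKT substrate antibody and streptavidin beads.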
Chain of Full-length inactive AKT1 (P31749 whole entry): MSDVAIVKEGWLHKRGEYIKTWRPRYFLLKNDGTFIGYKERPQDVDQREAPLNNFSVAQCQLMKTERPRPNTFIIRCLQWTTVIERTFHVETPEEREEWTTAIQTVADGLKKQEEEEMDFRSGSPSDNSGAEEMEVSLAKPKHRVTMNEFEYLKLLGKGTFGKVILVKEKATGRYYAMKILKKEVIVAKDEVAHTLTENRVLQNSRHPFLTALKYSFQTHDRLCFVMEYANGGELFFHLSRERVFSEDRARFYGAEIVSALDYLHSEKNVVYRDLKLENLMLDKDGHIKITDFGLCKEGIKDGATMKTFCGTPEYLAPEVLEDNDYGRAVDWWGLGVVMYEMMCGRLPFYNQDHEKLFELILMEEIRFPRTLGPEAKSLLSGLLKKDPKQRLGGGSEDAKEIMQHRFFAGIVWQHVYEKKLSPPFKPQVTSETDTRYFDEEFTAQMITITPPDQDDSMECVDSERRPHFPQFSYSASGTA
(In general: Bead proximity is the source of the signal in Alpha formats.)
Broadly, the pIC50 is the negative decadic logarithm of the IC50, by convention in mol/L. As to `Cc1cnc2c(c1)nc(-c1cccnc1N)n2-c1ccc(CNC(=O)c2ccccc2Cc2ccccc2)cc1` [Example 225, N-(4-(2-(2-aminopyridin-3-yl)-6-methyl-3H-imidazo[4,5-b]pyridin-3-yl)benzyl)-2-benzylbenzamide], the pIC50 was 7.96.

With `Nc1ncccc1-c1nc2ccc(-c3ccc(CO)cc3)nc2n1-c1ccc(CNC(=O)c2ccccc2)cc1` [Example 226, N-(4-(2-(2-aminopyridin-3-yl)-5-(4-(hydroxymethyl)phenyl)-3H-imidazo[4,5-b]pyridin-3-yl)benzyl)benzamide], the pIC50 is 7.74. With `Cc1cnc2c(c1)nc(-c1cccnc1N)n2-c1ccc(CNC(=O)OC(C)(C)C)cc1` [Example 227, tert-butyl 4-(2-(2-aminopyridin-3-yl)-6-methyl-3H-imidazo[4,5-b]pyridin-3-yl)benzylcarbamate] the figure was 6.33; with `Cc1cnc2c(c1)nc(-c1cccnc1N)n2-c1ccc(CNC(=O)c2ccc(F)cc2)cc1` [Example 228, N-(4-(2-(2-aminopyridin-3-yl)-6-methyl-3H-imidazo[4,5-b]pyridin-3-yl)benzyl)-4-fluorobenzamide], 6.62. `CC(=O)Nc1cccc(C(=O)NCc2ccc(-n3c(-c4cccnc4N)nc4cc(C)cnc43)cc2)c1` [Example 229, 3-acetamido-N-(4-(2-(2-aminopyridin-3-yl)-6-methyl-3H-imidazo[4,5-b]pyridin-3-yl)benzyl)benzamide]: the pIC50 was 7.60. With `Cc1cnc2c(c1)nc(-c1cccnc1N)n2-c1ccc(CNC(=O)c2ccc(C(C)C)cc2)cc1` [Example 230, N-(4-(2-(2-aminopyridin-3-yl)-6-methyl-3H-imidazo[4,5-b]pyridin-3-yl)benzyl)-4-isopropylbenzamide] the figure was 6.72; with `Cc1cnc2c(c1)nc(-c1cccnc1N)n2-c1ccc(CNC(=O)c2ccc3nc(C)ccc3c2)cc1` [Example 231, N-(4-(2-(2-aminopyridin-3-yl)-6-methyl-3H-imidazo[4,5-b]pyridin-3-yl)benzyl)-2-methylquinoline-6-carboxamide], 7.70. `Cc1cnc2c(c1)nc(-c1cccnc1N)n2-c1ccc(CNC(=O)c2cccc(F)c2)cc1` [Example 232, N-(4-(2-(2-aminopyridin-3-yl)-6-methyl-3H-imidazo[4,5-b]pyridin-3-yl)benzyl)-3-fluorobenzamide]: the pIC50 was 7.39. With `CC(C)c1ccc(C(=O)NCc2ccc(-n3c(-c4cccnc4N)nc4cc(-c5cccnc5)cnc43)cc2)cc1` [Example 233, N-(4-(2-(2-aminopyridin-3-yl)-6-(pyridin-3-yl)-3H-imidazo[4,5-b]pyridin-3-yl)benzyl)-4-isopropylbenzamide] the figure was 6.85; with `Nc1ncccc1-c1nc2cc(F)cnc2n1-c1ccc(CC(=O)Nc2ccccc2)cc1` [Example 234, 2-(4-(2-(2-aminopyridin-3-yl)-6-fluoro-3H-imidazo[4,5-b]pyridin-3-yl)phenyl)-N-phenylacetamide], 7.28. With `Nc1ncccc1-c1nc2ccc(-c3ccncc3)nc2n1-c1ccc(CNC(=O)c2ccccc2)cc1` [Example 235, N-(4-(2-(2-aminopyridin-3-yl)-5-(pyridin-4-yl)-3H-imidazo[4,5-b]pyridin-3-yl)benzyl)benzamide] the figure was 6.89; with `CC(=O)Nc1ccc(-c2ccc3nc(-c4cccnc4N)n(-c4ccc(CNC(=O)c5ccccc5)cc4)c3n2)cc1` [Example 236, N-(4-(5-(4-acetamidophenyl)-2-(2-aminopyridin-3-yl)-3H-imidazo[4,5-b]pyridin-3-yl)benzyl)benzamide], 7.48.

`Nc1ncccc1-c1nc2cc(-c3cc[nH]c3)cnc2n1-c1ccc(CNC(=O)c2ccccc2)cc1` [Example 237, N-(4-(2-(2-aminopyridin-3-yl)-6-(1H-pyrrol-3-yl)-3H-imidazo[4,5-b]pyridin-3-yl)benzyl)benzamide]: the pIC50 was 7.49.

The values above are taken from patent US8501770B2 (ArQule, Inc., priority 2009, dated 2013).
